Tested on: Erwinia amylovora (Ea) strain AFRS-581
Assay: Fireblight blossom infection on potted 'Rome' apple trees inoculated with Erwinia amylovora, greenhouse
Type: in vivo
Details: 'Rome' apple blossoms sprayed with 10^8 CFU Ea, treated about 1 hour later, scored after 7 days; PM 3% weight by volume; copper hydroxide 0.5 g/l; Blight Ban 1 g/l; streptomycin 0.5 g/l
Description: The enhanced effect of reducing fireblight in apple trees with the pesticide delivery system of the present invention containing bactericides is examined and compared to conventional pesticides.
Experiments are conducted on potted trees of ‘Rome’ apple in a naturally illuminated greenhouse. When about 80% of the blooms are open, open blossoms are sprayed to drip with 10^8 CFU of Erwinia amylovora (Ea) strain AFRS-581. After drying for about 1 hour, each the following treatments are applied to six of the infected trees. Slurries containing particulate materials (PM) (3% weight by volume), water and copper hydroxide at 0.5 g/l (Copper Count N from Mineral Research Development Co., Charlotte, N.C., a bactericide), Blight Ban at 1 g/l (from Plant Health Technologies, Boise, Id., a microbial bactericide), or streptomycin at 0.5 g/l (from Novartis Crop Protection Inc., Greensboro, N.C., an antibiotic); and slurries containing PM (3% weight by volume) and water; and mixtures of water and copper hydroxide at 0.5 g/l, Blight Ban at 1 g/l, or streptomycin at 0.5 g/l are applied to the apple trees. […]
After 7 days, blossom necrosis symptoms are present and recorded. Disease data are expressed as percentage of blossom infect rate.

In the case of [Cu+2].[OH-].[OH-] [copper hydroxide], the “% Blossom Infection” value is reported as 87.1%.
With [H]/N=C(/N)N[C@H]1[C@H](O)[C@@H](O)[C@H](O[C@@H]2O[C@@H](C)[C@](O)(C=O)[C@H]2O[C@@H]2O[C@@H](CO)[C@H](O)[C@@H](O)[C@@H]2NC)[C@@H](N/C(N)=N\[H])[C@@H]1O [streptomycin] the “% Blossom Infection” value was 83.3%.
